Source: ChEMBL document CHEMBL5143515, “Identification of new halogen-containing 2,4-diphenyl indenopyridin-5-one derivative as a boosting agent for the anticancer responses of clinically available topoisomerase inhibitors” (Eur J Med Chem, 2022)

How the values were obtained:
[1] = target: DNA topoisomerase 2-alpha (Homo sapiens) (UniProt P11388); experiment: Inhibition of recombinant human topoisomerase 2alpha assessed as relaxation of supercoiled plasmid pBR322 DNA at 100 uM by agarose gel electrophoresis (reference value: […]%)
HCT-15 = experiment: Antiproliferative activity against human HCT-15 cells after 72 hrs by EZ-Cytox colorimetric assay; format: functional, cell-based; conditions: HCT-15, 72 h
HeLa = experiment: Antiproliferative activity against human HeLa cells after 72 hrs by EZ-Cytox colorimetric assay; format: functional, cell-based
[2] = target: T1, DNA topoisomerase 1 (Homo sapiens) (UniProt P11387); experiment: Inhibition of recombinant human topoisomerase 1 assessed as relaxation of supercoiled plasmid pBR322 DNA at 100 uM by agarose gel electrophoresis (reference value: 90.6%)
T1 sequence (whole entry): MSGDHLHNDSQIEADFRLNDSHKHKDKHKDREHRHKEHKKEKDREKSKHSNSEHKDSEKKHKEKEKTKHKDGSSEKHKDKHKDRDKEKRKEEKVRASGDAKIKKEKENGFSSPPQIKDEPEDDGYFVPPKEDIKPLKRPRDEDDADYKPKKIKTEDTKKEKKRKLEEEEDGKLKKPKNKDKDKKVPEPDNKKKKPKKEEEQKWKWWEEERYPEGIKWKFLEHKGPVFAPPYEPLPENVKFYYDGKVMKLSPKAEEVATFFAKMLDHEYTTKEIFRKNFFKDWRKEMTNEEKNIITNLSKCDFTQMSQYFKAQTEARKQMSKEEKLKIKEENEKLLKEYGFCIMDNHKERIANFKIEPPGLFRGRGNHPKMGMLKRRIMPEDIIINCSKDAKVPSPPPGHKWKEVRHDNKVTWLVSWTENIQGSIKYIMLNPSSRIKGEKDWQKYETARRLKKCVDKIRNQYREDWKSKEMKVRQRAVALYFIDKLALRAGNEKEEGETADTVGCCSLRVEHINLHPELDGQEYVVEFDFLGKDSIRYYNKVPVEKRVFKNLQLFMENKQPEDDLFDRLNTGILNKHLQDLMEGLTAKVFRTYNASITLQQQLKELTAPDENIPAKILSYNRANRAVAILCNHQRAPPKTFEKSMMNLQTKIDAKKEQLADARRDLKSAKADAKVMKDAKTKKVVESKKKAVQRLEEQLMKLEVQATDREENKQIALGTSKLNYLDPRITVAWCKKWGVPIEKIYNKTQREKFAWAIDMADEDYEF

DU-145 = experiment: Antiproliferative activity against human DU-145 cells after 72 hrs by EZ-Cytox colorimetric assay; format: functional, cell-based; conditions: DU-145, 72 h
T47D = experiment: Antiproliferative activity against human T47D cells after 72 hrs by EZ-Cytox colorimetric assay; format: functional, cell-based
[3] = target: T1, DNA topoisomerase 1 (Homo sapiens); experiment: Inhibition of recombinant human topoisomerase 1 assessed as relaxation of supercoiled plasmid pBR322 DNA at 100 uM by agarose gel electrophoresis (reference value: 83.2%)
[4] = target: DNA topoisomerase 2-alpha (Homo sapiens) (UniProt P11388); experiment: Inhibition of recombinant human topoisomerase 2alpha assessed as relaxation of supercoiled plasmid pBR322 DNA at 100 uM by agarose gel electrophoresis (reference value: 82.2%)
[5] = target: DNA topoisomerase 2-alpha (Homo sapiens) (UniProt P11388); experiment: Inhibition of recombinant human topoisomerase 2alpha assessed as relaxation of supercoiled plasmid pBR322 DNA at 20 uM by agarose gel electrophoresis (reference value: 48.4%)
[6] = target: T1, DNA topoisomerase 1 (Homo sapiens); experiment: Inhibition of recombinant human topoisomerase 1 assessed as relaxation of supercoiled plasmid pBR322 DNA at 20 uM by agarose gel electrophoresis (reference value: 40.4%)
[7] = target: DNA topoisomerase 2-alpha (Homo sapiens) (UniProt P11388); experiment: Inhibition of recombinant human topoisomerase 2alpha assessed as relaxation of supercoiled plasmid pBR322 DNA at 100 uM by agarose gel electrophoresis (reference value: 81%)
[8] = target: T1, DNA topoisomerase 1 (Homo sapiens); experiment: Inhibition of recombinant human topoisomerase 1 assessed as relaxation of supercoiled plasmid pBR322 DNA at 20 uM by agarose gel electrophoresis (reference value: 38.3%)
[9] = target: T1, DNA topoisomerase 1 (Homo sapiens); experiment: Inhibition of recombinant human topoisomerase 1 assessed as relaxation of supercoiled plasmid pBR322 DNA at 100 uM by agarose gel electrophoresis (reference value: 81.9%)
[10] = target: DNA topoisomerase 2-alpha (Homo sapiens) (UniProt P11388); experiment: Inhibition of recombinant human topoisomerase 2alpha assessed as relaxation of supercoiled plasmid pBR322 DNA at 20 uM by agarose gel electrophoresis (reference value: […]%)
[11] = target: DNA topoisomerase 2-alpha (Homo sapiens) (UniProt P11388); experiment: Inhibition of recombinant human topoisomerase 2alpha assessed as relaxation of supercoiled plasmid pBR322 DNA at 20 uM by agarose gel electrophoresis relative to control
[12] = target: DNA topoisomerase 2-alpha (Homo sapiens) (UniProt P11388); experiment: Inhibition of recombinant human topoisomerase 2alpha assessed as relaxation of supercoiled plasmid pBR322 DNA at 100 uM by agarose gel electrophoresis (reference value: 84.9%)
[13] = target: T1, DNA topoisomerase 1 (Homo sapiens); experiment: Inhibition of recombinant human topoisomerase 1 assessed as relaxation of supercoiled plasmid pBR322 DNA at 100 uM by agarose gel electrophoresis (reference value: […]%)

Sequence of DNA topoisomerase 2-alpha (Homo sapiens) (P11388 whole entry): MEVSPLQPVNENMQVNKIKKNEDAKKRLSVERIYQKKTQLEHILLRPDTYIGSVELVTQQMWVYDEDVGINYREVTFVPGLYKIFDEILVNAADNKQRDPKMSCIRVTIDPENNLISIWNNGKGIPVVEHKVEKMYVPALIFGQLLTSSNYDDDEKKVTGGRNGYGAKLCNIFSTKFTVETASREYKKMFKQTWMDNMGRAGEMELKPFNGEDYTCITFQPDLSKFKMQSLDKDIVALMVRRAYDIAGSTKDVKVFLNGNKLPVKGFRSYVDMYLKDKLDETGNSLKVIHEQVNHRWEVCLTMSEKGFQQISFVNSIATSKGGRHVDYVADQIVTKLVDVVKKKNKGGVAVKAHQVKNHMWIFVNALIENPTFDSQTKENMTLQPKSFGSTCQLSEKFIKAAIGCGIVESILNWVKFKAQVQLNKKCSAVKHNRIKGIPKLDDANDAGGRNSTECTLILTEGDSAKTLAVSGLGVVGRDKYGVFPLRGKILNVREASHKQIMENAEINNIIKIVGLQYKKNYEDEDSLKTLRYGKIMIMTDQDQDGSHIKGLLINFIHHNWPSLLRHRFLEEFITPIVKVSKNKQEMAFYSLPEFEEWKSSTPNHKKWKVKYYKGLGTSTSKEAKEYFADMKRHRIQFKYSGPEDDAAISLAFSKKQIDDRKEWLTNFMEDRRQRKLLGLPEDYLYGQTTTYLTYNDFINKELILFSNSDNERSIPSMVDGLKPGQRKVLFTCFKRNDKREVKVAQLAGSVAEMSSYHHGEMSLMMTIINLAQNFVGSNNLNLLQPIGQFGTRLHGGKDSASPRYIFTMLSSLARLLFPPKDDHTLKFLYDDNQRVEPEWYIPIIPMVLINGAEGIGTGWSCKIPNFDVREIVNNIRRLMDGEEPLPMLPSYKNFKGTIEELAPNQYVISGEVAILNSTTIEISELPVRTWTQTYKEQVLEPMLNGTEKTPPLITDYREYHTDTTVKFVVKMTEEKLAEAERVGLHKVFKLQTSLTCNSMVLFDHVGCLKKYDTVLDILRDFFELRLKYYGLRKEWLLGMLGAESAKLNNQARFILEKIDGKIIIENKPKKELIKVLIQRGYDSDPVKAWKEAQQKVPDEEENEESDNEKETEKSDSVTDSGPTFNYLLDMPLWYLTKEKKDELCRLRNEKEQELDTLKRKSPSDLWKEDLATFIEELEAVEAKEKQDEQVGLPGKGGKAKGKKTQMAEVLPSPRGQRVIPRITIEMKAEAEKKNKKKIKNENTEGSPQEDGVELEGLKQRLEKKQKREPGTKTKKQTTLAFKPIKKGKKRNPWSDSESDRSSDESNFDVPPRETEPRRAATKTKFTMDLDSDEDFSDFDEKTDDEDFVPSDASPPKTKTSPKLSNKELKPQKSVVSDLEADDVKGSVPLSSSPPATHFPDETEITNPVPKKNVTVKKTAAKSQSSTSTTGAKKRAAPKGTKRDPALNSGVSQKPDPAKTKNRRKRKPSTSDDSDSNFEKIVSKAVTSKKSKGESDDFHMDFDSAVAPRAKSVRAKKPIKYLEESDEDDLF

| inhibition [1] | inhibition [2] | inhibition [3] | inhibition [4] | inhibition [5] | inhibition [6] | inhibition [7] | inhibition [8] | inhibition [9] | inhibition [10] | inhibition [11] | inhibition [12] | inhibition [13] | SMILES | IC50 (HCT-15) | IC50 (HeLa) | IC50 (DU-145) | IC50 (T47D) |
| --- | --- | --- | --- | --- | --- | --- | --- | --- | --- | --- | --- | --- | --- | --- | --- | --- | --- |
| 0% | 6.7% |  |  |  |  |  |  |  |  |  |  |  | OC1c2ccccc2-c2nc(-c3ccccc3F)cc(-c3ccccc3)c21 (configuration not stated) | > 50 µM | > 50 µM | > 50 µM | > 50 µM |
|  |  | 34.7% | 36.9% | 2.5% | 0% |  |  |  |  |  |  |  | O=C1c2ccccc2-c2nc(-c3ccc(F)cc3)cc(-c3ccccc3)c21 | 33.3 µM | > 50 µM | 20.7 µM | > 50 µM |
|  |  |  |  |  |  | 6.5% | 3.7% | 34.3% |  |  |  |  | O=C1c2ccccc2-c2nc(-c3ccc(OC(F)(F)F)cc3)cc(-c3ccccc3)c21 | 9.7 µM | 35.5 µM | 9.63 µM | 2.69 µM |
| 0% | 6.3% |  |  |  |  |  |  |  |  |  |  |  | OC1c2ccccc2-c2nc(-c3ccc(Cl)cc3)cc(-c3ccccc3)c21 (configuration not stated) | > 50 µM | > 50 µM | 35.1 µM | > 50 µM |
|  |  |  |  |  |  | 0.5% | 8.5% | 100% |  |  |  |  | O=C1c2ccccc2-c2nc(-c3cccc(OC(F)(F)F)c3)cc(-c3ccccc3)c21 | 27.6 µM | > 50 µM | 17.8 µM | 16.8 µM |
| 0% | 10.5% |  |  |  |  |  |  |  |  |  |  |  | OC1c2ccccc2-c2nc(-c3ccc(Br)cc3)cc(-c3ccccc3)c21 (configuration not stated) | > 50 µM | > 50 µM | 2.11 µM | 28.7 µM |
|  |  | 85.7% | 98.1% | 89.2% | 0% |  |  |  |  |  |  |  | O=C1c2ccccc2-c2nc(-c3cccc(Cl)c3)cc(-c3ccccc3)c21 | 23.4 µM | > 50 µM | 14.4 µM | > 50 µM |
|  |  |  |  |  |  |  |  |  |  | 12.2% | 66.7% | 18.3% | OC1c2ccccc2-c2nc(-c3cccc(OC(F)(F)F)c3)cc(-c3ccccc3)c21 (configuration not stated) | > 50 µM | > 50 µM | > 50 µM | 14.8 µM |
|  |  |  |  |  |  | 92.2% | 22.5% | 81.9% | 3.4% |  |  |  | O=C1c2ccccc2-c2nc(-c3cccc(C(F)(F)F)c3)cc(-c3ccccc3)c21 | 21.5 µM | > 50 µM | 15.2 µM | > 50 µM |

More lines, now with the values behind:

| SMILES | inhibition [1] | inhibition [2] | inhibition [3] | inhibition [4] | inhibition [5] | inhibition [6] | inhibition [7] | inhibition [8] | inhibition [9] | inhibition [10] | inhibition [11] | inhibition [12] | inhibition [13] | IC50 (HCT-15) | IC50 (HeLa) | IC50 (DU-145) | IC50 (T47D) |
| --- | --- | --- | --- | --- | --- | --- | --- | --- | --- | --- | --- | --- | --- | --- | --- | --- | --- |
| OC1c2ccccc2-c2nc(-c3ccc(F)cc3)cc(-c3ccccc3)c21 (configuration not stated) | 0% | 7.1% |  |  |  |  |  |  |  |  |  |  |  | > 50 µM | > 50 µM | > 50 µM | > 50 µM |
| O=C1c2ccccc2-c2nc(-c3ccccc3C(F)(F)F)cc(-c3ccccc3)c21 |  |  |  |  |  |  | 83.1% | 15.6% | 45% | 0.9% |  |  |  | > 50 µM | > 50 µM | 34 µM | > 50 µM |
| O=C1c2ccccc2-c2nc(-c3ccccc3F)cc(-c3ccccc3)c21 |  |  | 26.7% | 0% |  |  |  |  |  |  |  |  |  | 49.2 µM | > 50 µM | > 50 µM | > 50 µM |
| OC1c2ccccc2-c2nc(-c3cccc(C(F)(F)F)c3)cc(-c3ccccc3)c21 (configuration not stated) |  |  |  |  |  |  |  |  |  |  | 9.3% | 57.3% | 25.9% | > 50 µM | > 50 µM | > 50 µM | > 50 µM |
| OC1c2ccccc2-c2nc(-c3cccc(F)c3)cc(-c3ccccc3)c21 (configuration not stated) | 0% | 6.1% |  |  |  |  |  |  |  |  |  |  |  | > 50 µM | > 50 µM | > 50 µM | > 50 µM |
| OC1c2ccccc2-c2nc(-c3ccccc3Cl)cc(-c3ccccc3)c21 (configuration not stated) | 0% | 7.6% |  |  |  |  |  |  |  |  |  |  |  | 3.37 µM | 10.4 µM | 0.41 µM | 1.48 µM |
